The structures appear in SMILES notation.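 Method: 48-hour compound exposure of cells in 96-well plates, five concentrations, linear interpolation of endpoints. Abbreviation: GI50, concentration required for 50% inhibition of growth. Definition used: TGI = concentration required for complete inhibition of growth.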 A value given as a limit tells only on which side of the number the result lay.

The subject of one test is HOP-18 NSCLC. Put plainly: NCI tumour cell line growth inhibition, 48 h.
With `CC(C)c1ccc(C(c2ccc(OCC(=O)O)cc2)c2ccc(C(C)C)cc(=O)c2O)c(O)c(=O)c1`, the TGI amounted to 55.6 µM.
As for `CCCCOC(=O)NC(=O)c1cn(C2CCCCC2)c(=O)[nH]c1=O`, the TGI came to 49.4 µM.
With `CC(=O)O.[Au].c1ccc([PH+](c2ccccc2)c2ccccc2)cc1`, the GI50 was 2.14 µM and the TGI was 3.86 µM.
The compound `O=C(Nc1ccc(Cl)cc1Cl)C(=O)C(C(=O)c1ccncc1)C1OC(=O)c2ccccc21` (centres undefined) gave a TGI greater than 100 µM.
Still for that read-out and setting: the value for `CC(C)c1cc2c(O)c(c1)Cc1cc(C(C)C)cc(c1O)Cc1cc(C(C)C)cc(c1O)Cc1cc(C(C)C)cc(c1O)C2` was greater than 100 µM; that for `CC(=O)N1C/C(=C\c2ccc(N(C)C)cc2)C(=O)/C(=C/c2ccc(N(C)C)cc2)C1` was greater than 100 µM; that for `O=c1[nH]c(=O)n(C2OC(CO)C(O)C(O)C2O)cc1F` (centres undefined) was greater than 100 µM.
In turn, `Cc1ccc(-c2cc(=O)c3cc(C)c(C)c(C(=O)O)c3o2)cc1C` gave a TGI greater than 100 µM.
`Cc1ccc2c(c1)CN(C(=O)CCC(=O)OCc1ccccc1)c1ccc(C)cc1CN2C(=O)CCC(=O)OCc1ccccc1` gave a TGI greater than 100 µM.
For the compound `c1cc[c]([Pb]([c]2ccccc2)[c]2ccccc2)cc1`, the GI50 is 16.8 µM and the TGI came out at 50.8 µM.
Turning to `COc1ccc(/C(Cl)=C(\C=O)c2ccc([N+](=O)[O-])cc2)cc1`, the TGI was greater than 100 µM.
On the same count and under the same terms, the value for `O=C(/C=C/c1c(O)ccc2ccccc12)c1ccccc1` was greater than 100 µM.
Regarding `N.N.O=C([O-])P(=O)([O-])[O-].[Na+].[Pt+4]`, the GI50 is greater than 100 µM and the TGI was greater than 100 µM.
`Cc1[nH]c2ccccc2c1C1Cc2ccccc2N1C(=O)/C(Cl)=C/c1ccccc1` (centres undefined) returned a TGI greater than 100 µM.
As for `Cc1nc2ccccc2c(=O)n1-c1ccccc1F`, the TGI is greater than 100 µM.
As for `COC1=CC2(C=CC1=O)c1cc(OC)c(OC)cc1CCN2C(=O)c1ccccc1` (centres undefined), the TGI was greater than 100 µM.
In turn, `N#C/C(=C\c1cc2ccccc2c2ccccc12)c1ccccc1` gave a TGI greater than 61.2 µM.
On the same count and under the same terms, the same measure for `COc1ccc(/C=C\c2cc(OC)c(OC)c(OC)c2)cc1OC(=O)NCCN(C)C`: greater than 100 µM; for `COc1cc2c(c(OC)c1)C1(CC(CC#N)C2)SCCS1` (centres undefined): greater than 100 µM.
The same measure, in the same setting: the value for `Nc1ncn(C2CC(O)C(CO)O2)c(=O)n1` (centres undefined) was greater than 260 µM; that for `CC1=N/C(=C\c2cccc([N+](=O)[O-])c2)C(=O)O1` was greater than 100 µM.
Compound `CN(C)C(c1ccccc1)C(O)c1ccccc1` (centres undefined) had a TGI greater than 100 µM.

Another test concerns MDA-N. The test can be described thus: NCI tumour cell line growth inhibition, 48 h.
For the compound `CS(=O)(=O)c1cc(=O)c2ccccc2s1`, the TGI turned out to be 16.2 µM.
The same measure, in the same setting: the value for `c1cc2c(ncc3cscc32)s1` was greater than 100 µM; that for `Cn1cnc([N+](=O)[O-])c1[Se]c1nc(N)nc2c1ncn2C1OC(CO)C(O)C1O` (centres undefined) was greater than 100 µM.
The same measure, in the same setting: the value for `CC(C)CCCC(=O)CCCCCCC(=O)CCN(O)C(=O)C(N)CO` (centres undefined) was 49.4 µM; that for `CC(C)(C)c1ccc(O)c(CN(Cc2cc(C(C)(C)C)ccc2O)c2ccccc2)c1` was 30.4 µM; that for `Cc1nc(-c2ccccc2)c(-c2ccccc2)s1` was 35.1 µM.
On the same count and under the same terms, the value for `O=c1[nH]c(=O)n(C2OC(CO)C(O)C(O)C2O)cc1F` (centres undefined) was greater than 100 µM; that for `CO[C@H]1C=C[C@@]23c4cc5c(cc4CO[C@]2(O)CN(C)[C@H]3C1)OCO5` was greater than 100 µM; that for `CSc1nc2cc(S(=O)(=O)N3CCCCC3)ccc2s1` was greater than 100 µM.
Compound `O=C1OC(c2ccco2)=N/C1=C\c1cccc([N+](=O)[O-])c1` had a TGI greater than 100 µM.
Same read-out and setting: the same measure for `Cc1ccc2c(c1)CN(C(=O)CCC(=O)OCc1ccccc1)c1ccc(C)cc1CN2C(=O)CCC(=O)OCc1ccccc1`: greater than 100 µM; for `CCCCN1CSC(=S)N(Cc2ccccc2)C1`: greater than 100 µM.
Still for that read-out and setting: the value for `C/C=C(\C)CC/C=C/CO[Si](C)(C)C(C)(C)C` was greater than 100 µM; that for `CNc1nc(N)c(N=O)c(Nc2ccc(Br)cc2)n1` was greater than 100 µM.
The same measure, in the same setting: the value for `COc1cc2c(c(OC)c1OC)-c1c(cc3c(c1OC)OCO3)C1OC2C(C)C1C` (centres undefined) (tested in a mixture with another compound) was greater than 100 µM.
The compound `Nc1ncn(C2CC(O)C(CO)O2)c(=O)n1` (centres undefined) yielded a TGI of 7.2 µM.

A further test has as its system P388 leukemia. Put plainly: NCI tumour cell line growth inhibition, 48 h.
Take `Nc1ncn(C2CC(O)C(CO)O2)c(=O)n1` (centres undefined): the TGI turned out to be 142 µM.

The next test concerns P388/ADR leukemia. Put plainly: NCI tumour cell line growth inhibition, 48 h.
`Nc1ncn(C2CC(O)C(CO)O2)c(=O)n1` (centres undefined) had a TGI of 226 µM.

In a further test the test system is SN12K1 renal. Put plainly: NCI tumour cell line growth inhibition, 48 h.
In the case of `Nc1ncn(C2CC(O)C(CO)O2)c(=O)n1` (centres undefined), the TGI was greater than 375 µM.
